This test concerns S6 phosphorylation. Briefly: Inhibition of S6 phosphorylation (pS6) in IMR90 fibroblast lysates. It counts as cell-based. Particulars: Homo sapiens, IMR-90; IMR90 fibroblasts; dose of 1 ng/mL; FIG. 2. As to the method: IMR90 fibroblasts were administered varying doses of nab-sirolimus or rapamycin. Cell lysates were used to determine inhibition of S6 phosphorylation. Presence of vimentin. S6, and phosphorylated S6 (pS6) was measured.

The inhibition is the relative decrease from the control value, in per cent. Higher therefore signals a strong effect.

As for `CO[C@H]1C[C@@H]2CC[C@@H](C)[C@@](O)(O2)C(=O)C(=O)N2CCCC[C@H]2C(=O)O[C@H]([C@H](C)C[C@@H]2CC[C@@H](O)[C@H](OC)C2)CC(=O)[C@H](C)/C=C(\C)[C@@H](O)[C@@H](OC)C(=O)[C@H](C)C[C@H](C)/C=C/C=C/C=C/1C` [rapamycin], testing at 0.001 µg/mL gave an inhibition of 100%.

For the origin of these results see patent US20190307732A1, “METHODS OF TREATING MITOCHONDRIAL AND METABOLIC DISORDERS” (Abraxis Bioscience, LLC, priority 2016, published 2019).
